Experiments:
preeclampsia = conditions: low-dose, started before 16 weeks' gestation, high-risk women; cited from earlier work
miR-374b = experiment: qPCR of miR-374b expression in treated HUVEC; type: cell-based, human; conditions: 24 hours
Procedure: (§1) FIG. 2. MiR-122 and miR-374b are regulated by various agents that regulate sFlt-1 release. HUVEC cells were treated with 10 uM Hemin (A), 2 uM or 20 uM Pravastatin (B) 20 ng/ml VEGF-A (C) or 20 ng/ml VEGF-E (D) for 24 hours. Total RNA of the treated cells was isolated and the expression of miR-122 and miR-374b was measured by quantitative PCR. The relative miR-122 and miR-374b expression was normalized to RNU6.
(§2) FIG. 3. Hmox1 regulates miR-122 and miR-374b expression. HUVEC cells were infected by adenovirus overexpressiong Hmox1 (A) or transfected with siRNA against Hmox1 (B) for 24 hours and the relative expression of miR-122 and miR-374b was measured by qPCR.
(§3) Human umbilical vein endothelial cells (HUVECs) were isolated and cultured in M199 medium as described previously (Bussolati et al, 2001). Experiments were performed on third or fourth passage HUVEC.
(§4) Sample preparation and real-time quantitative PCR was performed as described previously (Cudmore et al., 2007).

miR-122 = experiment: qPCR of miR-122 expression in treated HUVEC; type: cell-based, human; conditions: 24 hours
Procedure: as §1, §2, §3, §4

miR-152 = experiment: qPCR of miR-152 expression in HUVEC; type: cell-based, human; conditions: growth factor 20 ng/ml, 24 hours
Procedure: FIG. 9 Hypoxia, inflammatory cytokine or angiogenic growth factor stimulation increases microRNA-152 expression in endothelial cells and placental explants. Human placental explants was treated with (A) inflammatory cytokine mix (TNF-α, 20 ng/ml, IFN-γ, 20 ng/ml and IL-1β, 2 ng/ml), (B) hypoxia (1% 02) condition or (C) combination of cytokine mix and hypoxia condition and assayed for miR-152 expression using qPCR. Similarly, HUEVC cells were treated with (D) hypoxia (1% 02) condition, VEGF-E (20 ng/ml, E) or FGF-2 (20 ng/ml, F) for 24 hours and used for qPCR analysis of miR-152 expression. Moreover, overexpression of miR-152 inhibited PlGF release, but not the sFlt-1 and sEng in endothelial cells. HUVECs were electroporated with mimic-152 or control mimic-con. After resting for 24 hours, the transfected cells were treated with vehicle or VEGF-E (20 ng/ml) in the conditioned media. […] Data is shown as mean+SEM and analyzed by Student t-test.
Human umbilical vein endothelial cells (HUVECs) were isolated and cultured in M199 medium as described previously (Bussolati et al, 2001). […] Briefly, human placental villus explants were incubated under stimulation of test substances or hypoxia condition and collected for quantitative PCR of miR-152. […]
as §4

miR-144 = experiment: qPCR of miR-144 expression in treated HUVEC; type: cell-based, human; conditions: hemin 10 uM
Procedure: as §3, §4

sFlt-1 = sFlt-1 release from HUVEC, ELISA of conditioned media; type: cell-based, human; conditions: 24 hours
Procedure: as §3
Chemically synthesized double-stranded microRNA mimic and single-stranded inhibitor against miR-122 (mi-122 and anti-122) and miR-374b (mi-374b and anti-374b) were purchased from Qiagen and the efficiency was tested by Qpcr (FIG. 6A, B). HUVECs were trypsinized, and 1×10^6 cells were electroporated with ≈0.6 ug mimic-122 or mimic-374b, =3 ug anti-122 or anti-374 or control molecules using electroporation (Amaxa GmbH, Cologne, Germany) as described previously (Cudmore et al., 2007).
Enzyme-linked immunosorbent assay (ELISA) kits for human sFlt-1 was obtained from R&D Systems and performed according to the manufacturer's specifications.
Enzyme-linked immunosorbent assay (ELISA) kits for human sFlt-1, sEng and P1GF were obtained from R&D Systems and performed according to the manufacturer's specifications.

CC(=O)Oc1ccccc1C(=O)O [aspirin]
prevention of PE, severe PE and IUGR (preeclampsia): up to 50%

CC[C@H](C)C(=O)O[C@H]1C[C@H](O)C=C2C=C[C@H](C)[C@H](CC[C@@H](O)C[C@@H](O)CC(=O)O)[C@H]21 [pravastatin]
induction of miR-374b expression (miR-374b; pravastatin 2 uM and 20 uM): 2.7 fold | induction of miR-122 expression (miR-122; pravastatin 2 uM and 20 uM): 3-9 fold

FGF-2: angiogenic growth factor used at 20 ng/ml
elevation of miR-152 expression (miR-152): ~65%

hemin
effect on miR-144 expression (miR-144): no significant effect | increase of miR-374b expression (miR-374b; hemin 10 uM): 2.7 fold | increase of miR-122 expression (miR-122; hemin 10 uM): 20 fold | recovery of hemin-reduced sFlt-1 release by VEGF-E stimulation (sFlt-1; hemin 10 uM plus VEGF-E): cannot be recovered | sFlt-1 release in endothelial cells (sFlt-1; hemin 10 uM): decreased

vascular endothelial growth factor A [VEGF-A]
reduction of miR-374b expression (miR-374b; growth factor 20 ng/ml): 20% | decrease of miR-122 expression (miR-122; growth factor 20 ng/ml): 47%
